In PubChem BioAssay (NCI):
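Method: 48-hour compound exposure of cells in 96-well plates, five concentrations, linear interpolation of endpoints. At the GI50, growth is halved. Definition used: TGI = concentration required for complete inhibition of growth.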

Legend:
Assay in all cases: growth of human tumour cells (NCI), 48 h
UO-31 renal = test system: UO-31 renal
RPMI-8226 leukemia = test system: RPMI-8226 leukemia
COLO 205 colon = test system: COLO 205 colon
RXF 393 renal = test system: RXF 393 renal
HCC-2998 colon = test system: HCC-2998 colon
HL-60(TB) leukemia = test system: HL-60(TB) leukemia
HOP-92 NSCLC = test system: HOP-92 NSCLC
CCRF-CEM leukemia = test system: CCRF-CEM leukemia
MALME-3M melanoma = test system: MALME-3M melanoma
SN12C renal = test system: SN12C renal

Row | SMILES | TGI (UO-31 renal) [µM] | TGI (RPMI-8226 leukemia) [µM] | TGI (COLO 205 colon) [µM] | TGI (RXF 393 renal) [µM] | TGI (HCC-2998 colon) [µM] | TGI (HL-60(TB) leukemia) [µM] | TGI (HOP-92 NSCLC) [µM] | TGI (CCRF-CEM leukemia) [µM] | TGI (MALME-3M melanoma) [µM] | TGI (SN12C renal) [µM] | GI50 (UO-31 renal) [µM] | GI50 (RPMI-8226 leukemia) [µM] | GI50 (RXF 393 renal) [µM] | GI50 (HCC-2998 colon) [µM] | GI50 (HL-60(TB) leukemia) [µM] | GI50 (HOP-92 NSCLC) [µM] | GI50 (CCRF-CEM leukemia) [µM] | GI50 (MALME-3M melanoma) [µM] | GI50 (SN12C renal) [µM] | GI50 (COLO 205 colon) [µM]
1 | O=C1CC[C@H]2CNC(=O)C[C@H]2C1 | > 100 | > 100 | > 100 | > 100 | > 100 | > 100 | > 100 | > 100 | > 100 | > 100 |  |  |  |  |  |  |  |  |  | 
2 | O=[N+]([O-])c1ccc(NSc2ccccc2)cc1 | > 100 |  | > 100 | 40.9 | > 100 | 47.5 | > 100 | > 100 | > 100 | 35.5 |  |  |  |  |  |  |  |  |  | 
3 | CCCNC(=O)OCc1c(COC(=O)NCCC)c(-c2ccc(Cl)c(Cl)c2)n2c1CCC2 | 12.6 | 24.4 | 13.2 | 9.35 |  | 7.7 | 9.98 | 7.95 | 9.72 | 19.4 |  |  |  |  |  |  |  |  |  | 
4 | O=C(O)/C=C/C(=O)Nc1ncn[nH]1 | > 100 | > 100 | > 100 | > 100 | > 100 |  | > 100 |  |  | > 100 |  |  |  |  |  |  |  |  |  | 
5 | N#Cc1nc(-c2ccc(F)cc2)oc1S(=O)(=O)N1CCOCC1 | 2.97 | 4.49 |  | 2.92 | 25.5 | 4.76 | 9.48 | 7.35 | 4.23 | 4.1 | 1.62 | 1.55 | 1.49 | 11.9 | 1.91 | 2.66 | 1.62 | 1.7 | 1.77 | 
6 | Cc1c(Cl)cccc1Nc1ncccc1C(=O)O | > 100 | > 100 | > 100 | > 100 | > 100 | > 100 | > 100 | > 100 | > 100 | > 100 | 55.7 | 47.7 | > 100 | 63.3 | > 100 | 41.6 | 64.2 | 73.4 | > 100 | 93.7
7 | COc1ccc(N=Cc2cc(OC)c(OC)c(OC)c2)cc1 | > 100 | 59.6 |  | > 100 |  |  | > 100 | > 100 | > 100 | > 100 |  |  |  |  |  |  |  |  |  | 
8 | COc1cc2c(c(O)c1C)C(=O)C(Cl)=CC2=O | 21.6 | 68.3 | 4.96 | 13.1 | 44.8 | 5.57 | 11.5 | 16 | 12.5 | 27.6 |  |  |  |  |  |  |  |  |  | 
9 | Fc1ccc(-c2nn(-c3ccccc3)cc2-c2nc3ccccc3o2)cc1 | 35.1 | 9.3 | 30.5 | > 100 | > 100 | 9.26 | 4.48 | > 100 | 5.99 | 33.5 | 1.67 | 1.05 | 31.6 | 7.98 | 3.29 | 0.158 | 3.43 | 1.71 | 6.15 | 15.1
